Laboratory results from US11505523B2, “HDAC8 inhibitors for treating cancer” (City of Hope, priority 2013, dated 2022).

Experiments:
HDAC10 = HDAC10 (Homo sapiens (Human), UniProt Q969S8); assay: Inhibition of purified HDAC10; settings: read-out: HDAC 10 IC50; class II
[1] = tested on: p53 target genes in pre-leukemic and leukemic progenitor cells expressing CM; settings: 10 μM, 16 h, qRT-PCR
Text: Relative expression of each target gene was normalized to levels of Hprt. Shown are fold activation compared to levels in vehicle treated cells (dashed line). Results represent the mean±SD.
We next examined whether enhanced p53 acetylation translate into increased p53 transcriptional activity. Using qRT-PCR assay, we accessed induction of p53 target genes in CM-ΔC95, CM, and CBFβ expressing cells upon IR (3Gy).

CL1-5 cells = assay: Cytotoxicity / anti-proliferative activity in CL1-5 lung cancer cells
[2] = tested on: Ac-p53 (K382) in inv(16)^+ AML CD34^+ cells; assay: Western blot of Ac-p53 (K382) in inv(16)+ AML CD34+ cells; settings: 6 h
Text: We therefore tested whether inhibiting HDAC8 deacetylase activity in inv(16)^+ AML CD34^+ cells could similarly lead to increased p53 acetylation and transcriptional activity.

HDAC2 = HDAC2 (Homo sapiens (Human), UniProt Q92769); assay: Inhibition of purified HDAC2; settings: read-out: HDAC 2 IC50; class I
[3] = tested on: p53 target genes in 32D-CM cells; assay: qRT-PCR of p53 target genes in 32D-CM cells; format: cell-based; settings: 10 μM, 16 h
[4] = tested on: dTomato^+/cKit^+ AML cells (CBFβ-SMMHC^+ LSCs); assay: Ex vivo treatment of CM-induced AML cells followed by transplantation into irradiated congenic mice; format: in vivo
Method: FIGS. 6A-6G. […] FIG. 6A: Schematic illustration of experimental design. […] Progression of AML was monitored by engraftment of AML cells in peripheral blood (PB) over time (4, 8 weeks) and engraftment in bone marrow and spleen was analyzed 8 weeks after transplantation. A cohort of mice was monitored for AML development and disease-free survival. […] Results represent mean±SD. […] FIG. 6D: Representative FACS plots of engrafted dTomato^+/cKit^+ AML cells in the bone marrow or spleen 8 weeks after transplantation.
Ai14 Cre reporter tdTomato mice on C57BL/6 background were obtained from the Jackson Laboratory. To induce CBFβ-SMMHC expression, 4-6 week old Mx1-Cre/Cbfb^56M/+ mice were injected with 250 μg of polyinosinic-polycytidylic acid (pIpC) (InvivoGen) every 2 days for 7 doses. Similarly treated Cbfb^56M/+ littermates without Cre were used as control. Pre-leukemic cells were isolated from mice 2 weeks after the last dose of pIpC treatment. For leukemia development, induced mice were monitored up to 6 months and analyzed when moribund. Transplantation of AML cells (2×10^6 cells/mouse) was performed via tail vein injection into sub-lethally irradiated (6.5 Gy) 6-8-week-old congenic C57BL/6 mice (CD45.1^+/CD45.2^+). All mice were maintained in an AAALAC-accredited animal facility at City of Hope, and all experimental procedures involving mice were performed in accordance with federal and state government guidelines and established institutional guidelines and protocols approved by the Institutional Animal Care and Use Committee at Beckman Research Institute of City of Hope.
AML LSCs are functionally characterized by their capacity to engraft and reproduce AML disease in transplanted host. […] To test this, we made use of our murine CM-induced AML model allowing for high-level engraftment and reproducible disease upon secondary transplantation. To facilitate tracking of CM-expressing AML cells, we created Cbfb^56M/+/Mx1-Cre mice with a Cre-reporter line expressing tdTomato fluorescence protein following Cre-mediated recombination.

MOLM13 cells = assay: Proliferation of MOLM13 cells, luminescent cell viability assay; format: cell-based, human; settings: 48-hr, luminescent cell viability assay; read-out: MOLM13 Proliferation IC50
Cl1-1 cells = assay: Cytotoxicity / anti-proliferative activity in CL1-1 lung cancer cells; settings: read-out: Cytotoxicity IC50 Cl1-1; mean SD of three determinations
[5] = tested on: Ac-p53 (K379) in 32D-CM cells; assay: Western blot of Ac-p53 in CBFβ-SMMHC (CM)-expressing 32D cells; format: cell-based
Text: Cells were lysed in RIPA buffer containing protease inhibitor cocktail (Roche) and MG132. Antibodies used for IP were conjugated with protein A/G beads using the antibody cross-linking kit (Pierce Biotechnology, Rockford, Ill.) following manufacturer's protocol. For Western blot, proteins were resolved in 10% SDS-PAGE. The antibodies used induced anti-FLAG (Sigma), anti-HDAC8, anti-CBFβ (Santa Cruz), anti-p53 (DO-1), anti-Ac-p53 (K379) (Cell Signaling), anti-p53 (Cell signaling) and anti-β-actin (Sigma). Horseradish peroxidase-conjugated anti-rabbit or anti-mouse secondary antibodies (Jackson ImmunoResearch, West Grove Pa.) were used, followed by detection using the SuperFemto kit (Pierce Biotechnology, Rockford, Ill.).
Class 1 HDACs, including HDAC1, HDAC2, and HDAC3, reportedly could inhibit p53 activity by deacetylating p53 [41-43]. […] To test this, we used lentivirus (pLKO. 1) mediated expression of 2 independent small-hairpin (sh)-RNA sequences against Hdac8 to specifically knock-down Hdac8 in 32D-CM cells. Cells were exposed to IR (3Gy) and analyzed for levels of p53 acetylation 6 h after.

HDAC4 = HDAC4 (Homo sapiens (Human), UniProt P56524); assay: Inhibition of purified HDAC4; settings: read-out: HDAC 4 IC50; class II
[6] = tested on: Ac-p53 and p53 in MV4-11 cells; assay: Western blot of Ac-p53 and p53 in MV4-11 cells; format: cell-based, human; settings: 6-hr, increased HDAC8i concentration
Method: FIGS. 21A-21D. HDAC8 inhibition activates p53 and induces p53-dependent apoptosis in human AML cells. […] FIG. 21B: Western blot analysis of Ac-p53, total p53, Ac-H3, Ac-H4, β-actin in MV4-11 cells treated with indicated doses of HDAC8i for 6 h. FIG. 21C: Fold change in mRNA levels of p53 targets after treatment with PCI-48012 ([…]) for 16 h. FIG. 21D: Western blot analysis of p53, β-actin in MV4-11 cells transduced with control or sh-p53 (top). Relative survival of control or sh-p53 transduced MV4-11 cells treated with HDAC8i (bottom).

MV4-11 cells [7] = assay: Survival/apoptosis of MV4-11 AML cells by Annexin V labeling; format: cell-based, human
MV4-11 cells [8] = assay: Proliferation of MV4-11 cells, luminescent cell viability assay; format: cell-based, human; settings: 48-hr, luminescent cell viability assay; read-out: MV4-11 Proliferation IC50

Sequence of HDAC4 (P56524 whole entry, species assumed): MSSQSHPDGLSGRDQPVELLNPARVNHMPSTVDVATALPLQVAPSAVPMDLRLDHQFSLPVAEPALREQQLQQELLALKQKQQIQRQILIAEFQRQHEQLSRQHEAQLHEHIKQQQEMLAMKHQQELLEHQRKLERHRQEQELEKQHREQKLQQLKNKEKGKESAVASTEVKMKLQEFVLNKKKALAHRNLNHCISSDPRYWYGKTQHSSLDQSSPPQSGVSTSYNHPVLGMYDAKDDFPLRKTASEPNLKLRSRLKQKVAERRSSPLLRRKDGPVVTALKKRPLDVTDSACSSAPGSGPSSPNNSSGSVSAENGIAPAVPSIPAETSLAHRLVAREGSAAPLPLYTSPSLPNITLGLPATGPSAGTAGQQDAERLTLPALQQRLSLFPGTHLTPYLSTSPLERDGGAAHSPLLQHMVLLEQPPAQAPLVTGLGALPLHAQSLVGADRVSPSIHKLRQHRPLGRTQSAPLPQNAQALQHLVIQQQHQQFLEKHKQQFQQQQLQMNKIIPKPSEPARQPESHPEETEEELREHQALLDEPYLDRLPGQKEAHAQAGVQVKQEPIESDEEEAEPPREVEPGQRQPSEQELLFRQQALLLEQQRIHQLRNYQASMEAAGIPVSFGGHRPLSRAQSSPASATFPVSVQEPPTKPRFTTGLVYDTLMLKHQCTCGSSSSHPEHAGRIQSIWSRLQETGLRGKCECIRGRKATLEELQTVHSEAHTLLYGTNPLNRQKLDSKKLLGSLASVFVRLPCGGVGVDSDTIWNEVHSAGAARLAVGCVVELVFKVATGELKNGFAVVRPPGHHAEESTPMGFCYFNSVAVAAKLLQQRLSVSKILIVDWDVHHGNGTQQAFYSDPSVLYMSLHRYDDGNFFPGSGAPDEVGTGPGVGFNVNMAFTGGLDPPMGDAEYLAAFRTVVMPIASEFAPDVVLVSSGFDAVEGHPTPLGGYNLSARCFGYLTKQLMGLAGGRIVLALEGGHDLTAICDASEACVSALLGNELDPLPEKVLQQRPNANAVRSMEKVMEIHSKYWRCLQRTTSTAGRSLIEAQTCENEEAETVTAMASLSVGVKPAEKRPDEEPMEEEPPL
Sequence of HDAC10 (Q969S8 whole entry, species assumed): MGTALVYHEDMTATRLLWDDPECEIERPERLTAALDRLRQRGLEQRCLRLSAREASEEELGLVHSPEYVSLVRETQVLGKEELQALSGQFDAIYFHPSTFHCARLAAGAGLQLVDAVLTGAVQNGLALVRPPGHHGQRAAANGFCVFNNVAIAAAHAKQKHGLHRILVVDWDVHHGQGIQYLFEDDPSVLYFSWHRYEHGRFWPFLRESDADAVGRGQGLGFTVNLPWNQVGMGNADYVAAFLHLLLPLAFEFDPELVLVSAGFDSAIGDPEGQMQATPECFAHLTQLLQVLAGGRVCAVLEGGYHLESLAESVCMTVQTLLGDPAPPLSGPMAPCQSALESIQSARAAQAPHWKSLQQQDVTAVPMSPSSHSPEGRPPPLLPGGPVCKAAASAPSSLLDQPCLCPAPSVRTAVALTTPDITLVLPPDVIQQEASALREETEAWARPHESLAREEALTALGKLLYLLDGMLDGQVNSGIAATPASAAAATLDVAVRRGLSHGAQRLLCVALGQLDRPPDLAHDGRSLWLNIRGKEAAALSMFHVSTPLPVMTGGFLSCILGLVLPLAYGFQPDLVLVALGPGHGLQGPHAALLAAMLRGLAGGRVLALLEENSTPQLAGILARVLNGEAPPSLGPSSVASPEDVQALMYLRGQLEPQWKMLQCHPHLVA
Sequence of HDAC2 (Q92769 whole entry, species assumed): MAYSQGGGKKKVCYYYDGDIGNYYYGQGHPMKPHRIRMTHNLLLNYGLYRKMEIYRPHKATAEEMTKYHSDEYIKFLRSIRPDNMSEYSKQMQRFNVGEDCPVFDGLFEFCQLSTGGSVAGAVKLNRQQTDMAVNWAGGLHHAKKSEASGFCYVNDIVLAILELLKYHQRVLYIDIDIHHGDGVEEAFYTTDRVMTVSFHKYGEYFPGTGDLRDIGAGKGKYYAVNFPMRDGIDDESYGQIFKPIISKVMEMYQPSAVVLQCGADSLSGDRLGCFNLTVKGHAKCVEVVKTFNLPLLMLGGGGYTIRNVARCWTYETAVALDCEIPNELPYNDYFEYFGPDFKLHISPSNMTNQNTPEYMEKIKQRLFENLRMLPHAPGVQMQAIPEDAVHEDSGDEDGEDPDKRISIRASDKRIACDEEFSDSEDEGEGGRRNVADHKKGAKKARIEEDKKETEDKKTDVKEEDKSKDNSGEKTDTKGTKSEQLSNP

COc1ccc(/C=C/C(=O)NO)c(-c2ccc(-c3ccccc3)cc2)c1 [Compound 22d, (E)-N-Hydroxy-4-methoxy-2-(biphenyl-4-yl)cinnamide]
IC50 (HDAC10): > 20 nM
activation of p53 target genes in progenitor cells expressing endogenous levels of CM [1]: induces activation of p53 targets
IC50 (CL1-5 cells; read-out: Cytotoxicity IC50 Cl1-5, mean SD of three determinations): 7 ± 1.5 nM
activity in CL1-5 cells (CL1-5 cells; result in words): activity similar to that of SAHA
Ac-p53 (K382) level in inv(16)+ AML CD34+ cells [2]: elevated levels of Ac-p53 (K382)
IC50 (HDAC2): > 20 nM
activation of p53 targets (Bax, Puma, p21, Gadd45b and LincRNA-p21) [3]: Variable levels of activation
frequencies of dTomato+/cKit+ AML cells in BM and spleen ([4]; 8 weeks after transplantation, vs vehicle-treated cells): significantly (p=0.025) reduced frequencies
total numbers of dTomato+/cKit+ AML cells in BM and spleen ([4]; 8 weeks after transplantation, vs vehicle-treated group): significantly (p=0.025) lower
dTomato+/cKit+ cells in the peripheral blood ([4]; cells treated 10 μM 48 h before transplantation): barely detectable
engraftment of dTomato+ and dTomato+/cKit+ cells ([4]; equal number (2×10^6) of treated AML cells transplanted): reduced the engraftment
AML onset and survival of transplanted mice ([4]; mouse, in vivo): prevented AML reoccurrence
survival of mice ([4]; mouse, in vivo): enhanced survival
IC50 (MOLM13 cells): 2420 nM
IC50 (Cl1-1 cells): > 10 nM
Ac-p53 level in CM-expressing cells ([5]; Western blot, 6 h): remarkably increased Ac-p53
Ac-p53 level, in combination with Nutlin-3 ([5]; compared to Nutlin-3 alone): enhanced Ac-p53 compared to Nutlin-3 alone
enhancement of p53 acetylation compared to other HDAC inhibitors ([5]; vs MS-275, TV6, PCI-24781): differential activity in enhancing p53 acetylation
IC50 (HDAC4): > 20 nM
Ac-p53 and p53 signal by western blot [6]: greater signal for Ac-p53 and p53
IC50 (MV4-11 cells [7]; 48-hr, Annexin V labeling, read-out: MV4-11 Apoptosis IC50): 2710 nM
survival of MV4-11 cells (MV4-11 cells [7]; 48 h, result in words): decreases with increased HDAC8i concentration
IC50 (MV4-11 cells [8]): 2480 nM
